{"source": "patent US20210393520A1", "about": "“TREATMENT OF GRAM-NEGATIVE FOLLICULITIS OR AN INFLAMMATION THEREOF WITH BESIFLOXACIN” (VYOME THERAPEUTICS LIMITED, priority 2018, published 2021)", "key": {"[1]": {"test_system": "Acinetobacter sp. 488", "assay": "MIC, micro broth dilution in Muller Hinton broth (CLSI), Table 1B", "type": "cell-based", "conditions": "read-out: Minimum Inhibitory Concentration", "procedure": "(§1) Besifloxacin HCL was tested against ampicillin and cefotaxime (3rd generation cephalosporin) susceptible and resistant gram-negative bacterial strains involved in GNF (gram negative folliculitis) by broth dilution method as per the Clinical & Laboratory Standards Institutes (CLSI) guidelines. MIC assay was performed in 96 well plates by micro broth dilution method, in 96 well plates, all the wells were added with 100 μl of sterilized Muller Hinton broth No: 2 cation broth (HiMedia, India). The initial stock of test compounds (1 mg/ml) were prepared in dimethyl sulfoxide (DMSO) and further dilutions were made in culture broth to get the desirable concentration. Then 100 μl of broth containing test compounds were initially added to the first column's wells and then serial dilution was performed up to well of 10th column. Wells of 11th and 12th column served as a positive and negative control respectively. Finally, 100 μl of inoculum (0.5 McFarland equal bacterial suspension was 100 times diluted in culture broth) was added to all the wells. Plates were incubated at 37° C. for 18-24 hrs. After incubation, MIC of each test compound was determined by observing the lowest concentration of test compound that has no visual growth compared to growth control. Minimum inhibitory concentration of besifloxacin, ampicillin and cefotaxime against gram negative bacterial strains were shown in Table 1."}, "[2]": {"test_system": "Enterobacter sp. 1", "assay": "MIC, micro broth dilution in Muller Hinton broth (CLSI), Table 1B", "type": "cell-based", "conditions": "read-out: Minimum Inhibitory Concentration", "procedure": "as §1"}, "[3]": {"test_system": "Enterobacter sp. 2", "assay": "MIC, micro broth dilution in Muller Hinton broth (CLSI), Table 1B", "type": "cell-based", "conditions": "read-out: Minimum Inhibitory Concentration", "procedure": "as §1"}, "[4]": {"test_system": "Enterobacter sp. 523", "assay": "MIC, micro broth dilution in Muller Hinton broth (CLSI), Table 1B", "type": "cell-based", "conditions": "read-out: Minimum Inhibitory Concentration", "procedure": "as §1"}, "[5]": {"test_system": "Enterobacter sp. 532", "assay": "MIC, micro broth dilution in Muller Hinton broth (CLSI), Table 1B", "type": "cell-based", "conditions": "read-out: Minimum Inhibitory Concentration", "procedure": "as §1"}, "[6]": {"test_system": "Escherichia coli 591", "assay": "MIC, micro broth dilution in Muller Hinton broth (CLSI), Table 1B", "type": "cell-based", "conditions": "read-out: Minimum Inhibitory Concentration", "procedure": "as §1"}, "[7]": {"test_system": "Escherichia coli 592", "assay": "MIC, micro broth dilution in Muller Hinton broth (CLSI), Table 1B", "type": "cell-based", "conditions": "read-out: Minimum Inhibitory Concentration", "procedure": "as §1"}, "[8]": {"test_system": "Klebsiella sp. 498", "assay": "MIC, micro broth dilution in Muller Hinton broth (CLSI), Table 1B", "type": "cell-based", "conditions": "read-out: Minimum Inhibitory Concentration", "procedure": "as §1"}, "[9]": {"test_system": "Klebsiella sp. 512", "assay": "MIC, micro broth dilution in Muller Hinton broth (CLSI), Table 1B", "type": "cell-based", "conditions": "read-out: Minimum Inhibitory Concentration", "procedure": "as §1"}, "[10]": {"test_system": "Pseudomonas sp. 537", "assay": "MIC, micro broth dilution in Muller Hinton broth (CLSI), Table 1B", "type": "cell-based", "conditions": "read-out: Minimum Inhibitory Concentration", "procedure": "as §1"}, "[11]": {"test_system": "Pseudomonas sp. 556", "assay": "MIC, micro broth dilution in Muller Hinton broth (CLSI), Table 1B", "type": "cell-based", "conditions": "read-out: Minimum Inhibitory Concentration", "procedure": "as §1"}, "[12]": {"test_system": "P. acnes V3-1", "assay": "MIC against bacteria isolated from acne lesions, Table 2", "type": "cell-based, Propionibacterium acnes", "conditions": "Cutibacterium acnes, V31; P. acnes V3-1, isolated from acne lesions; read-out: Minimum Inhibitory Concentration", "procedure": "(§2) MIC of besifloxacin and other antibiotics molecules were determined by micro broth dilution method as per the Clinical and Laboratory Standards Institute (CLSI) guideline. MIC assay is the determinant of the inherent anti-microbial potency of a particular molecule. For preparing inoculum, bacterial strains were cultured in Brain Heart Infusion Agar (BHIA) at 37° C. for 24 hours. […] For bacterial inoculum, bacterial culture turbidity was adjusted to 0.1 OD at 600 nm in UV-Visual spectrophotometer (approximately 1.5×10^8 cells/ml) and further diluted (100 times with sterile BHI broth). Diluted bacterial suspension (100 μl) was added to each well except sterility control wells (column 12 of 96 well plate). Column 11 of 96 well plate was used as growth control and vehicle control. The plates were incubated at 37° C. for 24 h. The MIC of the test compounds were determined by observing the lowest concentration of test compound that prevented the visual bacterial growth.\n(§3) Different skin resident bacteria were isolated from acne lesions of moderate to severe acne patients."}, "[13]": {"test_system": "Bacillus megaterium M1-2.", "assay": "MIC against bacteria isolated from acne lesions, Table 2", "type": "cell-based", "conditions": "Priestia megaterium, M12., read-out: Minimum Inhibitory Concentration", "procedure": "as §2, §3"}, "[14]": {"test_system": "Dermatobacter hominis S11-2", "assay": "MIC against bacteria isolated from acne lesions, Table 2", "type": "cell-based", "conditions": "S112; Dermatobacter hominis S11-2, isolated from acne lesions; read-out: Minimum Inhibitory Concentration", "procedure": "as §2, §3"}, "[15]": {"test_system": "Enterobacter aerogenes M2-1", "assay": "MIC against bacteria isolated from acne lesions, Table 2", "type": "cell-based", "conditions": "Klebsiella aerogenes, M21; Enterobacter aerogenes M2-1, isolated from acne lesions; read-out: Minimum Inhibitory Concentration", "procedure": "as §2, §3"}, "[16]": {"test_system": "K. pneumoniae S6-1", "assay": "MIC against bacteria isolated from acne lesions, Table 2", "type": "cell-based", "conditions": "Klebsiella pneumoniae, S61; K. pneumoniae S6-1, isolated from acne lesions; read-out: Minimum Inhibitory Concentration", "procedure": "as §2, §3"}, "[17]": {"test_system": "Kocuria sp. S18-1", "assay": "MIC against bacteria isolated from acne lesions, Table 2", "type": "cell-based", "conditions": "SP.S181; Kocuria sp. S18-1, isolated from acne lesions; read-out: Minimum Inhibitory Concentration", "procedure": "as §2, §3"}, "[18]": {"test_system": "Microbacterium sp. S20-2", "assay": "MIC against bacteria isolated from acne lesions, Table 2", "type": "cell-based", "conditions": "Microbacterium sp. S20-2, isolated from acne lesions", "procedure": "as §2, §3"}, "[19]": {"test_system": "P. avidum S3-1", "assay": "MIC against bacteria isolated from acne lesions, Table 2", "type": "cell-based", "conditions": "Cutibacterium avidum, S31; P. avidum S3-1, isolated from acne lesions; read-out: Minimum Inhibitory Concentration", "procedure": "as §2, §3"}, "[20]": {"test_system": "S. epidermidis S1-1", "assay": "MIC against bacteria isolated from acne lesions, Table 2", "type": "cell-based", "conditions": "Staphylococcus epidermidis, S11; S. epidermidis S1-1, isolated from acne lesions; read-out: Minimum Inhibitory Concentration", "procedure": "as §2, §3"}, "[21]": {"test_system": "Staphylococcus haemolyticus M1-1", "assay": "MIC against bacteria isolated from acne lesions, Table 2", "type": "cell-based", "conditions": "M11; Staphylococcus haemolyticus M1-1, isolated from acne lesions; read-out: Minimum Inhibitory Concentration", "procedure": "as §2, §3"}, "[22]": {"test_system": "Blastococcus sp. S21A-2", "type": "cell-based", "conditions": "Blastococcus sp. S21A-2, isolated from acne lesions", "procedure": "as §2, §3"}}, "data": [{"smiles": "CO/N=C(\\C(=O)N[C@@H]1C(=O)N2C(C(=O)O)=C(COC(C)=O)CS[C@H]12)c1csc(N)n1", "note": "[Cefotaxime]", "values": [{"measurement": "MIC", "setting": "[1]", "value": "> 128", "unit": "µg/mL"}, {"measurement": "MIC", "setting": "[2]", "value": 128, "unit": "µg/mL"}, {"measurement": "MIC", "setting": "[3]", "value": 0.5, "unit": "µg/mL"}, {"measurement": "MIC", "setting": "[4]", "value": 128, "unit": "µg/mL"}, {"measurement": "MIC", "setting": "[5]", "value": 64, "unit": "µg/mL"}, {"measurement": "MIC", "setting": "[6]", "value": "< 0.25", "unit": "µg/mL"}, {"measurement": "MIC", "setting": "[7]", "value": 128, "unit": "µg/mL"}, {"measurement": "MIC", "setting": "[8]", "value": "64 to 128", "unit": "µg/mL"}, {"measurement": "MIC", "setting": "[9]", "value": "< 0.25", "unit": "µg/mL"}, {"measurement": "MIC", "setting": "[10]", "value": 16, "unit": "µg/mL"}, {"measurement": "MIC", "setting": "[11]", "value": 4, "unit": "µg/mL"}]}, {"smiles": "CC[C@H]1OC(=O)[C@H](C)[C@@H](O[C@H]2C[C@@](C)(OC)[C@@H](O)[C@H](C)O2)[C@H](C)[C@@H](O[C@@H]2O[C@H](C)C[C@H](N(C)C)[C@H]2O)[C@](C)(O)C[C@@H](C)C(=O)[C@H](C)[C@@H](O)[C@]1(C)O", "note": "[Erythromycin]", "values": [{"measurement": "MIC", "setting": "[12]", "value": "> 150", "unit": "µg/mL"}, {"measurement": "MIC", "setting": "[13]", "value": 0.25, "unit": "µg/mL"}, {"measurement": "MIC", "setting": "[14]", "value": "> 4", "unit": "µg/mL"}, {"measurement": "MIC", "setting": "[15]", "value": "> 4", "unit": "µg/mL"}, {"measurement": "MIC", "setting": "[16]", "value": "> 4", "unit": "µg/mL"}, {"measurement": "MIC", "setting": "[17]", "value": "> 4", "unit": "µg/mL"}, {"measurement": "Minimum Inhibitory Concentration", "setting": "[18]", "value": 0.25, "unit": "µg/mL"}, {"measurement": "MIC", "setting": "[19]", "value": 0.06, "unit": "µg/mL"}, {"measurement": "MIC", "setting": "[20]", "value": "> 4", "unit": "µg/mL"}, {"measurement": "MIC", "setting": "[21]", "value": 0.25, "unit": "µg/mL"}, {"measurement": "Minimum Inhibitory Concentration", "setting": "[22]", "value": "<0.01", "unit": "µg/mL"}]}, {"smiles": "CN(C)[C@@H]1C(O)=C(C(N)=O)C(=O)[C@@]2(O)C(O)=C3C(=O)c4c(O)cccc4[C@@](C)(O)[C@H]3C[C@@H]12", "note": "[Tetracycline]", "values": [{"measurement": "MIC", "setting": "[12]", "value": 0.3, "unit": "µg/mL"}, {"measurement": "MIC", "setting": "[13]", "value": 0.06, "unit": "µg/mL"}, {"measurement": "MIC", "setting": "[14]", "value": "> 4", "unit": "µg/mL"}, {"measurement": "MIC", "setting": "[15]", "value": 2, "unit": "µg/mL"}, {"measurement": "MIC", "setting": "[16]", "value": "> 4", "unit": "µg/mL"}, {"measurement": "MIC", "setting": "[17]", "value": 1, "unit": "µg/mL"}, {"measurement": "Minimum Inhibitory Concentration", "setting": "[18]", "value": 2, "unit": "µg/mL"}, {"measurement": "MIC", "setting": "[19]", "value": 1, "unit": "µg/mL"}, {"measurement": "MIC", "setting": "[20]", "value": "> 4", "unit": "µg/mL"}, {"measurement": "MIC", "setting": "[21]", "value": 0.25, "unit": "µg/mL"}, {"measurement": "Minimum Inhibitory Concentration", "setting": "[22]", "value": 0.5, "unit": "µg/mL"}]}]}
